Measurements: ChEMBL document CHEMBL5537146, “Novel orally bioavailable piperidine derivatives as extracellular arginase inhibitors developed by a ring expansion” (Eur J Med Chem, 2024)

How the values were obtained:
Arginase-1 [1] = molecular target: T1, Arginase-1 (Homo sapiens, UniProt P05089); assay: Inhibition of human recombinant ARG1 expressed in Escherichia coli using L-arginine hydrochloride as substrate assessed as inhibition of urea production incubated for 20 mins by colorimetric analysis
T1 sequence (P05089 whole entry): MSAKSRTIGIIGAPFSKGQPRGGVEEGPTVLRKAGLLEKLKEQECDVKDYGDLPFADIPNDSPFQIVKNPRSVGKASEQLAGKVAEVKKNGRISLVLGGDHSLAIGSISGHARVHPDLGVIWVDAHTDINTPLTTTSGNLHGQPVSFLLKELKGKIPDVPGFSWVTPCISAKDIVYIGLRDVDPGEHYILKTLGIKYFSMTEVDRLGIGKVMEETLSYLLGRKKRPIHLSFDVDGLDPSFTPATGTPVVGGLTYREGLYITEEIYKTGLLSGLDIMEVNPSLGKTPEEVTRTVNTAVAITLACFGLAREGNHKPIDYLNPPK

[2] = Inhibition of mouse intracellular ARG in M2 polarized C57BL/6 mouse BMDM cells incubated for 24 hrs by absorbance based analysis; type: cell-based; settings: C57BL/6, BMDM
Arginase-1 [3] = molecular target: T1, Arginase-1; assay: Inhibition of extracellular arginase (unknown origin)
[4] = Volume of distribution at steady state in Sprague-Dawley rat at 3 mg/kg, iv measured over 24 hrs by LC-MS/MS analysis; type: ADME, organism-based; settings: in vivo, read-out: Vdss
[5] = Clearance in Sprague-Dawley rat at 3 mg/kg, iv measured over 24 hrs by LC-MS/MS analysis; type: ADME, organism-based; settings: in vivo
[6] = Terminal elimination half-life in Sprague-Dawley rat at 3 mg/kg, iv measured over 24 hrs by LC-MS/MS analysis; type: ADME, organism-based; settings: in vivo, read-out: beta t1/2 (converted)
[7] = Tmax in Sprague-Dawley rat at 10 mg/kg, po measured over 24 hrs by LC-MS/MS analysis; type: ADME, organism-based; settings: in vivo
[8] = Oral bioavailability in Sprague-Dawley rat at 10 mg/kg measured over 24 hrs by LC-MS/MS analysis; type: ADME, organism-based; settings: in vivo
[9] = Drug metabolism in Sprague-Dawley rat plasma assessed as increase in arginine level by measuring fold change at 10 mg/kg, po measured for 24 hrs by LC-MS/MS analysis; type: ADME, organism-based; settings: in vivo
[10] = Drug metabolism in Balb/c mouse plasma assessed as (3R,5S)-3-amino-5-(2-boronoethyl)piperidine-3-carboxylic acid metabolite formation at 100 mg/kg, po measured for 24 hrs by LC-MS/MS analysis; type: ADME, organism-based; settings: in vivo
[11] = Drug metabolism in Balb/c mouse plasma assessed as increase in arginine level by measuring fold change at 100 mg/kg, po measured for 24 hrs […] by LC-MS/MS analysis; type: ADME, organism-based; settings: in vivo
[12] = Oral bioavailability in Balb/c mouse at 100 mg/kg measured for 24 hrs by LC-MS/MS analysis; type: ADME, organism-based; settings: in vivo
[13] = Genotoxicity in Salmonella typhimurium TA98 in presence of S9 fraction by Ames test; type: toxicity; settings: salmonella enterica subsp. enterica serovar typhimurium
[14] = molecular target: Voltage-gated inwardly rectifying potassium channel KCNH2 (Homo sapiens, UniProt Q12809); assay: Inhibition of hERG; type: toxicity
[15] = Toxicity in Sprague-Dawley rat assessed as change in body weight measured after 7 days; settings: in vivo, 168 h, time 7 day
[16] = Toxicity in Sprague-Dawley rat assessed as mortality upto 1 g/Kg, po measured after 7 days; type: organism-based; settings: in vivo, 1000 mg/kg, 168 h, time 7 day
[17] = Permeability in human Caco-2 cells; type: ADME, cell-based
[18] = AUC (0 to infinity) in Sprague-Dawley rat at 10 mg/kg, po measured for 24 hrs by LC-MS/MS analysis; type: ADME, organism-based; settings: in vivo

Voltage-gated inwardly rectifying potassium channel KCNH2, sequence (Q12809 whole entry): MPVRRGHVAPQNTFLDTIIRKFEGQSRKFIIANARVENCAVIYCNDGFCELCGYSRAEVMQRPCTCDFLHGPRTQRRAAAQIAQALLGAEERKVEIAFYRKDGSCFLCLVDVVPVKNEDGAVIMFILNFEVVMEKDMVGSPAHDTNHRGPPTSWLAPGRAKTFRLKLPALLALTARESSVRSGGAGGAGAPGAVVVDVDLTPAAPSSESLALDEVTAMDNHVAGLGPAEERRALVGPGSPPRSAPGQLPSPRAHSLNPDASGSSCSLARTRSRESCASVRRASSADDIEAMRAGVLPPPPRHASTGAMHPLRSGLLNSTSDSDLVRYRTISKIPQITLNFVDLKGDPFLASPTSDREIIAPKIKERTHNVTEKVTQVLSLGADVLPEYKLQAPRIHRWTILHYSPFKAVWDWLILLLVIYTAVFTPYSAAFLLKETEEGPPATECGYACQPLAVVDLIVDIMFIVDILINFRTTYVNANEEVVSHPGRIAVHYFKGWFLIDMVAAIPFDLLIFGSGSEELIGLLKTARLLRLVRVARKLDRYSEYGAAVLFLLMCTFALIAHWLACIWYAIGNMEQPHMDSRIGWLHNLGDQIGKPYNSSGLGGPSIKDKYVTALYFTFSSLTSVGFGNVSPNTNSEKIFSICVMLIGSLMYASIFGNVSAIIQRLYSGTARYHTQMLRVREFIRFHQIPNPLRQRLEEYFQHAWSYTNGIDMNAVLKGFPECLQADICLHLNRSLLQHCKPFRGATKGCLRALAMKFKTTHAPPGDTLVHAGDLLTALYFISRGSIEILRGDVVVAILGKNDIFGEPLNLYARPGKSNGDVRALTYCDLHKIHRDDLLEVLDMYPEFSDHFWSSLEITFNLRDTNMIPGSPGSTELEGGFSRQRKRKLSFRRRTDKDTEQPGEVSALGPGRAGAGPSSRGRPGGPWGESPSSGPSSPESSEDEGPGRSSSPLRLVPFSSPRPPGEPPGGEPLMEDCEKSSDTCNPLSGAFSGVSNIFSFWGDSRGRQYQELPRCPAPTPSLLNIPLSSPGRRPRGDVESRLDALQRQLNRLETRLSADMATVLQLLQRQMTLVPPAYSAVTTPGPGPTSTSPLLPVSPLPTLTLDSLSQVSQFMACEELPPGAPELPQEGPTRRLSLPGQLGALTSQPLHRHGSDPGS

Structure (SMILES)	IC50 (Arginase-1 [1]) [nM]	IC50 [2] [nM]	other results
COC(=O)[C@@]1(N)C[C@H](CCB(O)O)CN(C(=O)[C@H](C)N)C1	> 10000	–	–
N[C@@H](CO)C(=O)N1C[C@@H](CCB(O)O)C[C@](N)(C(=O)O)C1	280	> 300000	–
C[C@H](N)C(=O)N1C[C@@H](CCB(O)O)C[C@@](N)(C(=O)O)C1	> 10000	–	–
N[C@@H](CS)C(=O)N1C[C@@H](CCB(O)O)C[C@](N)(C(=O)O)C1	760	> 300000	–
CN(C)C[C@@H]1CC[C@@H](CCB(O)O)C[C@]1(N)C(=O)O	20	1100	IC50 (Arginase-1 [3]): 20 nM
C[C@H](N)C(=O)N1C[C@H](CCCB(O)O)[C@](N)(C(=O)O)C1	–	56200	–
C[C@H](N)C(=O)N1C[C@H](CCB(O)O)C[C@@](N)(C(=O)O)C1	> 10000	–	–
CNCC(=O)N1C[C@@H](CCB(O)O)C[C@](N)(C(=O)O)C1	420	> 300000	–
N[C@@H](Cc1c[nH]c2ccccc12)C(=O)N1C[C@@H](CCB(O)O)C[C@](N)(C(=O)O)C1	280	> 300000	–
N[C@@H](Cc1ccccc1)C(=O)N1C[C@@H](CCB(O)O)C[C@](N)(C(=O)O)C1	240	> 300000	Vd [4]: 0.69 L/kg; clearance [5]: 5.87 mL/min/kg; half-life [6]: 2.66 h; Tmax [7]: 1 h; bioavailability [8]: 18.8%; fold change (FC) [9]: 2
N[C@@]1(C(=O)O)CCC[C@@H](CCB(O)O)C1	1200	–	–
NCCCC[C@H](N)C(=O)N1C[C@@H](CCB(O)O)C[C@](N)(C(=O)O)C1	250	> 300000	–
C[C@H](N)C(=O)N1C[C@@H](CCB(O)O)C[C@](N)(C(=O)O)C1	270	> 300000	Vd [4]: 0.69 L/kg; clearance [5]: 5.87 mL/min/kg; half-life [6]: 2.66 h; Tmax [7]: 1 h; bioavailability [8]: 18.8%; fold change (FC) [9]: 2; Drug metabolism [10]: Metabolite_Detected; fold change (FC) [11]: 3; bioavailability [12]: 58%
N=C(N)NCCC[C@H](N)C(=O)N1C[C@@H](CCB(O)O)C[C@](N)(C(=O)O)C1	160	> 300000	Activity [13]: Toxic; Vd [4]: 0.69 L/kg; clearance [5]: 5.87 mL/min/kg; half-life [6]: 2.66 h; Tmax [7]: 1 h; bioavailability [8]: 18.8%; fold change (FC) [9]: 2; Drug metabolism [10]: Metabolite_Detected; fold change (FC) [11]: 3; inhibition (INH) [14]: Not Active; Activity [15]: Non-Toxic; Activity [16]: Non-Toxic; permeability [17]: Impermeable
C[C@H](N)C(=O)N1C[C@H](CCB(O)O)C[C@](N)(C(=O)O)C1	> 10000	–	–
CC[C@H](C)[C@H](N)C(=O)N1C[C@@H](CCB(O)O)C[C@](N)(C(=O)O)C1	760	> 300000	–
NC(=O)C[C@H](N)C(=O)N1C[C@@H](CCB(O)O)C[C@](N)(C(=O)O)C1	360	> 300000	–
CCC[C@H](N)C(=O)N1C[C@@H](CCB(O)O)C[C@](N)(C(=O)O)C1	340	> 300000	–

Structure (SMILES)	IC50 (Arginase-1 [1]) [nM]	IC50 [2] [nM]	other results
N[C@@]1(C(=O)O)CNC[C@@H](CCB(O)O)C1	830	–	–
N[C@@H](CC(=O)O)C(=O)N1C[C@@H](CCB(O)O)C[C@](N)(C(=O)O)C1	650	> 300000	–
N[C@@H](Cc1c[nH]cn1)C(=O)N1C[C@@H](CCB(O)O)C[C@](N)(C(=O)O)C1	210	> 300000	–
NCCC[C@H](N)C(=O)N1C[C@@H](CCB(O)O)C[C@](N)(C(=O)O)C1	310	> 300000	–
NC(=O)NCCC[C@H](N)C(=O)N1C[C@@H](CCB(O)O)C[C@](N)(C(=O)O)C1	360	> 300000	–
C[C@@H](N)C(=O)N1C[C@@H](CCB(O)O)C[C@](N)(C(=O)O)C1	3220	> 300000	–
N[C@@H](CCC(=O)O)C(=O)N1C[C@@H](CCB(O)O)C[C@](N)(C(=O)O)C1	680	> 300000	–
NC(=O)CC[C@H](N)C(=O)N1C[C@@H](CCB(O)O)C[C@](N)(C(=O)O)C1	420	> 300000	–
N[C@@H](Cc1ccc(O)cc1)C(=O)N1C[C@@H](CCB(O)O)C[C@](N)(C(=O)O)C1	280	> 300000	–
CC(C)C[C@H](N)C(=O)N1C[C@@H](CCB(O)O)C[C@](N)(C(=O)O)C1	610	> 300000	–
C[C@@H](O)[C@H](N)C(=O)N1C[C@@H](CCB(O)O)C[C@](N)(C(=O)O)C1	380	> 300000	–
N[C@]1(C(=O)O)C[C@H](CCB(O)O)CN(C(=O)[C@@H]2CCCN2)C1	350	> 300000	–
C[C@H](N)C(=O)N1C[C@@H](CCB(O)O)C[C@](N)(C(=O)O)[C@@H]1C	250	–	Vd [4]: 0.69 L/kg; clearance [5]: 5.87 mL/min/kg; half-life [6]: 2.66 h; Tmax [7]: 1 h; bioavailability [8]: 65.6%; fold change (FC) [9]: 2
CC(C)[C@H](N)C(=O)N1C[C@@H](CCB(O)O)C[C@](N)(C(=O)O)C1	360	> 300000	–
Cn1cc(C[C@@H](N)C(=O)N2C[C@@H](CCB(O)O)C[C@](N)(C(=O)O)C2)c2ccccc21	740	> 300000	–
CSCC[C@H](N)C(=O)N1C[C@@H](CCB(O)O)C[C@](N)(C(=O)O)C1	400	> 300000	–
NCC(=O)N1C[C@@H](CCB(O)O)C[C@](N)(C(=O)O)C1	250	> 300000	Vd [4]: 0.69 L/kg; clearance [5]: 5.87 mL/min/kg; half-life [6]: 2.66 h; Tmax [7]: 1 h; bioavailability [8]: 18.8%; fold change (FC) [9]: 2; AUC(0-inf) [18]: 2680 ng·h/mL
C[C@@H]1N(C(=O)[C@@H](N)CCCNC(=N)N)C[C@@H](CCB(O)O)C[C@]1(N)C(=O)O	400	–	–
